# Source: patent US9546152B2 (MERCK SHARP & DOHME CORP., priority 2012, dated 2017)
# Tests used:
# human orexin-2 receptor [1] = molecular target: T1, human orexin-2 receptor (Homo sapiens (Human), UniProt O43614); assay: FLIPR Ca2+ Flux Assay, orexin-2 receptor; type: cell-based; details: CHO cells expressing the human orexin-2 receptor; agonist 70 pM Ala-6,12 human orexin-A; read-out: hOX2R FLIPR IC50
# Description: (§1) In a typical experiment the OX1 and OX2 receptor antagonistic activity of the compounds of the present invention was determined in accordance with the following experimental method. For intracellular calcium measurements, Chinese hamster ovary (CHO) cells expressing the rat orexin-1 receptor or the human orexin-2 receptor, are grown in Iscove's modified DMEM containing 2 mM L-glutamine, […], 1% hypoxanthine-thymidine supplement, 100 U/ml penicillin, 100 μg/ml streptomycin and 10% heat-inactivated fetal calf serum (FCS). The cells are seeded at 20,000 cells/well into Becton-Dickinson black 384-well clear bottom sterile plates coated with poly-D-lysine. All reagents were from GIBCO-Invitrogen Corp. The seeded plates are incubated overnight at 37° C. and 5% CO2. Ala-6,12 human orexin-A as the agonist is prepared as a 1 mM stock solution in 1% bovine serum albumin (BSA) and diluted in assay buffer (HBSS containing 20 mM HEPES, 0.1% BSA and 2.5 mM probenecid, pH7.4) for use in the assay at a final concentration of 70 pM. Test compounds are prepared as 10 mM stock solution in DMSO, then diluted in 384-well plates, first in DMSO, then assay buffer. On the day of the assay, cells are washed 3 times with 100 μl assay buffer and then incubated for 60 min (37° C., 5% CO2) in 60 μl assay buffer containing 1 μM Fluo-4AM ester, 0.02% pluronic acid, and 1% BSA. The dye loading solution is then aspirated and cells are washed 3 times with 100 μl assay buffer. 30 μl of that same buffer is left in each well. Within the Fluorescent Imaging Plate Reader (FLIPR, Molecular Devices), test compounds are added to the plate in a volume of 25 μl, incubated for 5 min and finally 25 μl of agonist is added. Fluorescence is measured for each well at 1 second intervals for 5 minutes and the height of each fluorescence peak is compared to the height of the fluorescence peak induced by 70 pM Ala-6,12 orexin-A with buffer in place of antagonist. […] Alternatively, compound potency can be assessed by a radioligand binding assay (described in Bergman et. al. Bioorg. Med. Chem. Lett. 2008, 18, 1425-1430) in which the inhibition constant (Ki) is determined in membranes prepared from CHO cells expressing either the OX1 or OX2 receptor. The intrinsic orexin receptor antagonist activity of a compound which may be used in the present invention may be determined by these assays.
# human orexin-2 receptor [2] = molecular target: T1, human orexin-2 receptor; assay: radioligand binding assay, orexin-2 receptor; details: membranes prepared from CHO cells expressing the OX2 receptor; read-out: hOX2R BIND hKi
# Description: as §1
# rat orexin-1 receptor = rat orexin-1 receptor (Rattus norvegicus (Rat), UniProt P56718); assay: FLIPR Ca2+ Flux Assay, orexin-1 receptor; type: cell-based; details: CHO cells expressing the rat orexin-1 receptor; agonist 70 pM Ala-6,12 human orexin-A; read-out: hOX1R FLIPR IC50
# Description: as §1
# T1 sequence (O43614 whole entry): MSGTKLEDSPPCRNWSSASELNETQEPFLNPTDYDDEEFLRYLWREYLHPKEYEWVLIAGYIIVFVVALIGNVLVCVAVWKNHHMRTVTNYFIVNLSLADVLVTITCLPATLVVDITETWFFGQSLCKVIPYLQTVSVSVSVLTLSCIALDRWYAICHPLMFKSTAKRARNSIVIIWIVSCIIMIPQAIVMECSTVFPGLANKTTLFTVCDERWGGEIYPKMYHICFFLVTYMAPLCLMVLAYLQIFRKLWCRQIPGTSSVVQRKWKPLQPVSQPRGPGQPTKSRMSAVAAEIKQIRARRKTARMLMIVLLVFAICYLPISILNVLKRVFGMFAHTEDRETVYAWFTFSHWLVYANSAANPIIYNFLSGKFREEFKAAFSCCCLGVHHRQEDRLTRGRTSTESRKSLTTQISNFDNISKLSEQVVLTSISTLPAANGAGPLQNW
# Sequence of rat orexin-1 receptor (P56718 whole entry): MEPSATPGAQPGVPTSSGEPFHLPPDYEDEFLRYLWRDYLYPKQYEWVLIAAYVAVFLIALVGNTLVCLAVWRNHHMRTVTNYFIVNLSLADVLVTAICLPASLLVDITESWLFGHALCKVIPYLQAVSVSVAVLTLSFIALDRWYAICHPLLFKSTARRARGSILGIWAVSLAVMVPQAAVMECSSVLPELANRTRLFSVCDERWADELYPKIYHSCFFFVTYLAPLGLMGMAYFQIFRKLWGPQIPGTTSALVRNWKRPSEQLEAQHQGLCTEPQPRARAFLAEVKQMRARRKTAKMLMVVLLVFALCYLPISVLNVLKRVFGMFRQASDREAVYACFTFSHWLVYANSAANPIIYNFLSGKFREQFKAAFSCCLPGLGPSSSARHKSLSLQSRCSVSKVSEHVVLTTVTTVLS
Structure (SMILES),IC50 (human orexin-2 receptor [1]) [nM],Ki (human orexin-2 receptor [2]) [nM],IC50 (rat orexin-1 receptor) [nM]
"Cc1c(C#N)ccnc1O[C@@H]1CC[C@@H](C)N(C(=O)c2ccc(Cl)cc2-n2nccn2)C1 [Example 4, 2-{[(3R,6R)-1-{[4-chloro-2-(2H-1,2,3-triazol-2-yl)phenyl]carbonyl}-6-methylpiperidin-3-yl]oxy}-3-methylpyridine-4-carbonitrile]",12,0.4,–
"COc1ccc(C(=O)N2C[C@H](Oc3nccc(C#N)c3C)CC[C@H]2C)c(C2CC2)n1 [Example 5, 2-({(3R,6R)-1-[(2-cyclopropyl-6-methoxypyridin-3-yl)carbonyl]-6-methylpiperidin-3-yl}oxy)-3-methylpyridine-4-carbonitrile]",32,1.7,–
"COc1ccc(C(=O)N2C[C@H](Oc3nccc(C#N)c3C)CC[C@H]2C)c(-n2nccn2)c1 [Example 7, 2-{[(3R,6R)-1-{[4-methoxy-2-(2H-1,2,3-triazol-2-yl)phenyl]carbonyl}-6-methylpiperidin-3-yl]oxy}-3-methylpyridine-4-carbonitrile]",13,1.3,–
"Cc1c(C#N)ccnc1O[C@@H]1CC[C@@H](C)N(C(=O)c2cccc(F)c2-n2nccn2)C1 [Example 12, 2-{[(3R,6R)-1-{[3-fluoro-2-(2H-1,2,3-triazol-2-yl)phenyl]carbonyl}-6-methylpiperidin-3-yl]oxy}-3-methylpyridine-4-carbonitrile]",12,1,–
"Cc1c(C#N)ccnc1O[C@@H]1CC[C@@H](C)N(C(=O)c2c(F)cccc2-c2nccs2)C1 [Example 18, 2-{[(3R,6R)-1-{[2-fluoro-6-(1,3-thiazol-2-yl)phenyl]carbonyl}-6-methylpiperidin-3-yl]oxy}-3-methylpyridine-4-carbonitrile]",7,0.1,–
"Cc1c(C#N)ccnc1O[C@@H]1CC[C@@H](C)N(C(=O)c2sncc2-c2ccccc2)C1 [Example 20, 3-methyl-2-({(3R,6R)-6-methyl-1-[(4-phenylisothiazol-5-yl)carbonyl]piperidin-3-yl}oxy)pyridine-4-carbonitrile]",89,15.2,–
"Cc1c(C#N)ccnc1O[C@@H]1CC[C@@H](C)N(C(=O)c2ccccc2OC(C)C)C1 [Example 21, 3-methyl-2-{[(3R,6R)-6-methyl-1-{[2-(1-methylethoxy)phenyl]carbonyl}piperidin-3-yl]oxy}pyridine-4-carbonitrile]",8,0.6,–
"Cc1c(C#N)ccnc1O[C@@H]1CC[C@@H](C)N(C(=O)c2ccncc2-c2ccccc2)C1 [Example 23, 3-methyl-2-({(3R,6R)-6-methyl-1-[(3-phenylpyridin-4-yl)carbonyl]piperidin-3-yl}oxy)pyridine-4-carbonitrile]",69,16.6,–
"Cc1c(C#N)ccnc1O[C@@H]1CC[C@@H](C)N(C(=O)c2ccccc2-c2ncco2)C1 [Example 27, 3-methyl-2-{[(3R,6R)-6-methyl-1-{[2-(1,3-oxazol-2-yl)phenyl]carbonyl}piperidin-3-yl]oxy}pyridine-4-carbonitrile]",17,0.3,–
"Cc1c(C#N)ccnc1O[C@@H]1CC[C@@H](C)N(C(=O)c2ccccc2-c2cscn2)C1 [Example 33, 3-methyl-2-{[(3R,6R)-6-methyl-1-{[2-(1,3-thiazol-4-yl)phenyl]carbonyl}piperidin-3-yl]oxy}pyridine-4-carbonitrile]",6,0.2,–
"Cc1c(C#N)ccnc1O[C@@H]1CC[C@@H](C)N(C(=O)c2ccccc2-c2nccs2)C1 [Example 44, 3-methyl-2-{[(3R,6R)-6-methyl-1-{[2-(1,3-thiazol-2-yl)phenyl]carbonyl}piperidin-3-yl]oxy}pyridine-4-carbonitrile]",8,0.1,–
"COc1ccc(C(=O)N2C[C@H](Oc3nccc(C#N)c3C)CC[C@H]2C)c(-c2ccncc2)n1 [Example 48, 2-({(3R,6R)-1-[(6-methoxy-2,4′-bipyridin-3-yl)carbonyl]-6-methylpiperidin-3-yl}oxy)-3-methylpyridine-4-carbonitrile]",65,8.9,–
Cc1c(C#N)ccnc1O[C@@H]1CC[C@@H](C)N(C(=O)c2nscc2-c2ccccc2)C1 [Example 50],22,2,–
"Cc1c(C#N)ccnc1O[C@@H]1CC[C@@H](C)N(C(=O)c2nscc2-n2nccn2)C1 [Example 55, 3-methyl-2-{[(3R,6R)-6-methyl-1-{[4-(2H-1,2,3-triazol-2-yl)isothiazol-3-yl]carbonyl}piperidin-3-yl]oxy}pyridine-4-carbonitrile]",81,7.4,–
"Cc1c(C#N)ccnc1O[C@@H]1CC[C@@H](C)N(C(=O)c2ccccc2OC(F)(F)F)C1 [Example 62, 3-methyl-2-{[(3R,6R)-6-methyl-1-{[2-(trifluoromethoxy)phenyl]carbonyl}piperidin-3-yl]oxy}pyridine-4-carbonitrile]",16,0.8,–
"Cc1c(C#N)ccnc1O[C@@H]1CC[C@@H](C)N(C(=O)C2=C(c3ccccn3)CCC2)C1 [Example 63, 3-methyl-2-({(3R,6R)-6-methyl-1-[(2-pyridin-2-ylcyclopent-1-en-1-yl)carbonyl]piperidin-3-yl}oxy)pyridine-4-carbonitrile]",59,4,–
COc1ccc(C(=O)N2C[C@H](Oc3nccc(C#N)c3C)CC[C@H]2C)c(C2CCC2)n1 [Example 66],77,1.4,–
"Cc1c(C#N)ccnc1O[C@@H]1CC[C@@H](C)N(C(=O)c2cc(F)ccc2-n2nccn2)C1 [Example 69, 2-{[(3R,6R)-1-{[5-fluoro-2-(2H-1,2,3-triazol-2-yl)phenyl]carbonyl}-6-methylpiperidin-3-yl]oxy}-3-methylpyridine-4-carbonitrile]",11,0.6,–
"COc1ccc(C(=O)N2C[C@H](Oc3nccc(C#N)c3C)CC[C@H]2C)c(OC)n1 [Example 73, 2-({(3R,6R)-1-[(2,6-dimethoxypyridin-3-yl)carbonyl]-6-methylpiperidin-3-yl}oxy)-3-methylpyridine-4-carbonitrile]",–,32.7,–
"COc1ccc(C(=O)N2C[C@H](Oc3nccc(C#N)c3C)CC[C@H]2C)c(-c2cnn(C)c2)n1 [Example 80, 2-{[(3R,6R)-1-{[6-methoxy-2-(1-methyl-1H-pyrazol-4-yl)pyridin-3-yl]carbonyl}-6-methylpiperidin-3-yl]oxy}-3-methylpyridine-4-carbonitrile]",171,–,10000
"COc1cc(-n2nccn2)c(C(=O)N2C[C@H](Oc3nccc(C#N)c3C)CC[C@H]2C)cn1 [Example 85, 2-{[(3R,6R)-1-{[6-methoxy-4-(2H-1,2,3-triazol-2-yl)pyridin-3-yl]carbonyl}-6-methylpiperidin-3-yl]oxy}-3-methylpyridine-4-carbonitrile]",–,43.2,–
"CSc1ccc(C(=O)N2C[C@H](Oc3nccc(C#N)c3C)CC[C@H]2C)c(-n2nccn2)n1 [Example 86, 3-methyl-2-{[(3R,6R)-6-methyl-1-{[6-(methylsulfanyl)-2-(2H-1,2,3-triazol-2-yl)pyridin-3-yl]carbonyl}-piperidin-3-yl]oxy}pyridine-4-carbonitrile]",126,5.1,–
"CCc1c(C#N)ccnc1O[C@@H]1CC[C@@H](C)N(C(=O)c2ccccc2-n2nccn2)C1 [Example 93, 3-ethyl-2-{[(3R,6R)-6-methyl-1-{[2-(2H-1,2,3-triazol-2-yl)phenyl]carbonyl}piperidin-3-yl]oxy}pyridine-4-carbonitrile]",8,0.1,–
"COc1c(C#N)ccnc1O[C@@H]1CC[C@@H](C)N(C(=O)c2ccc(F)cc2-n2nccn2)C1 [Example 98, 2-{[(3R,6R)-1-{[4-fluoro-2-(2H-1,2,3-triazol-2-yl)phenyl]carbonyl}-6-methylpiperidin-3-yl]oxy}-3-methoxypyridine-4-carbonitrile]",19,0.3,–
"COc1c(C#N)ccnc1O[C@@H]1CC[C@@H](C)N(C(=O)c2ccsc2-n2nccn2)C1 [Example 106, 3-methoxy-2-{[(3R,6R)-6-methyl-1-{[2-(2H-1,2,3-triazol-2-yl)thiophen-3-yl]carbonyl}piperidin-3-yl]oxy}pyridine-4-carbonitrile]",8,–,1960
